Source: US20130224239A1, “ALCOHOLIC EXTRACT OF FUNGI OF GENUS […] AND USE THEREOF” (KING SAUD UNIVERSITY, priority 2011, published 2013)
≈ marks a conversion by molar mass, not a printed value. Marks after values point to notes of the source that are not given here.

Columns and labels:
[1] = test system: Penicllium expansum (RCMB 1006); test: Antimicrobial screening, disc diffusion; type: cell-based; conditions: RCMB1006; Penicillium expansum; Standard Antibiotics (1 mg/ml); read-out: Diameter of inhibition zone
Procedure: (§1) The alcoholic extracts obtained were used for testing their antimicrobial activity. Each extract (0.5 g) was dissolved in 10 ml water. Same concentrations for the successive extracts (using diethyl ether, chloroform, ethyl acetate and n-butanol) were also prepared.
(§2) The representatives of Gram negative bacteria, namely Salmonella typhimuium (RCMB 0104), Escherichia coli (RCMB 0103), Pseudomonas aeruginosa (RCMB 0102) and Gram positive bacteria, namely Bacillus subtilis (RCMB 0107), Staphylococcus aureus (RCMB 0106), Streptococcus pyogenes (RCMB 0109), unicellular fungi, namely Candida albicans (RCMB 5002) and filamentous fungi, namely Aspergillus fumigatus (RCMB 2003) and Penicllium expansum (RCMB 1006) were used as test organisms (RCMB: The Regional Center for Mycology and Biotechnology, Al-azhar University Nasser City, Cairo, Egypt).
(§3) For antimicrobial screening the well known disc diffusion and agar well diffusion methods were used, together with the determination of minimum inhibitory concentration (MIC), see Duguid et al., Microbial Infections, The English Language Book Society, Churchill Livingston, Edingburgh, London, 1978; vol. 1, page 110.
(§4) Disc diffusion method: The agar disc diffusion method is employed for the determination of antimicrobial activities of the extracts of the investigated fungal species. Sterilized paper discs (Whatman No. 1) ([…]) were separately soaked in the extracts and transferred onto the surface of growth media seeded with the test organism. After incubation period, following suitable conditions for the test organism, the diameter of the inhibition zone around the discs was measured in millimeters. The obtained result was the mean of three experiments.
(§5) Each fungal species was grown on malt extract media at 28±2° C. for 14 days. The metabolites of the fungal species were screened for antimicrobial activity. The inhibition zones around each disc were measured, in millimeter, and recorded (Tables 1).

[2] = test system: Aspergillus fumigatus (RCMB 2003); test: Antimicrobial screening, disc diffusion; type: cell-based; conditions: RCMB2003, Standard Antibiotics (1 mg/ml), read-out: Diameter of inhibition zone
Procedure: as §1, §2, §3, §4, §5

[3] = test system: Candida albicans (RCMB 5002); test: Antimicrobial screening, disc diffusion; type: cell-based; conditions: RCMB5002, Standard Antibiotics (1 mg/ml), read-out: Diameter of inhibition zone
Procedure: as §1, §2, §3, §4, §5

[4] = test system: Staphylococcus aureus infected wounds; test: Wound healing activity, excision wound model; type: in vivo, guinea pig
Procedure: Swiss albino mice (20-25 g), male Sprague-Dawley rats (160-180 g) and male guinea pigs (240-260 g) were employed in the study. The animals were left for 2 weeks at room conditions to ensure stabilization before use. They were maintained on standard pellet diet and water ad libitum throughout the experiment. • a) Acute Toxicity: Mice were divided into groups of 6 and the methanol extracts of C. blakesleeana, C. elegans and C. homothallica were administered orally in increasing doses. […] Rats of the 1^St group were given a vehicle (1% v/v Tween 80) in a dose of 5 ml kg^−1 and left as normal control. Rats of the 2nd, 3rd, and 4th groups were administered the methanol extracts of C. blakesleeana, C. elegans and C. homothallica, respectively in a dose of 200 mg kg^−1. All medications were administered orally via the aid of an oral tube for 35 days. […] At the end of the experimental period, blood samples (2 mL) were collected from the retro-orbital venous plexus of each rat (under ether anesthesia) into clean centrifuge tubes. The blood samples were allowed to clot at room temperature for 30 min after which they were centrifuged at 10,000 rpm for 5 minutes. Sera were separate with Pasteur pipette into sterile serum sample tubes and used for biochemical assay.
Measurement of Liver and Kidney Function Markers: • Liver functions were evaluated by measuring the serum activity of aspartate aminotransferase (AST) and alanine aminotransferase (ALT) following the method of Reitman and Frankel, Am. J. Clin. Path., 28: 55-60, alkaline phosphatase enzyme (ALP) by the method of Babson et al., Clinical Chemistry, 12: 482-490. Serum levels of total bilirubin, total proteins and albumin were also assayed. Globulin was obtained from the difference between total proteins and albumin. Serum concentrations of uric acid, urea and creatinine were determined colormetrically as measures of kidney functions. All measurements were carried out by protocols well known in the art. • c) Wound Healing Activity: The excision wound model was used to monitor wound contraction and wound closure time. Four groups of male guinea pigs were used in the experiment with 6 animals in each group. At the beginning of the experiment, the dorsal skin of each guinea pig was shaved with an electric clipper. After 24 hours, all animals were anesthetized by diethyl ether and the shaved areas were sterilized with 70% alcoholic solution. A predetermined dorsal area (15 mm×20 mm) was inflicted by cutting away a full thickness of skin (2 mm depth) using toothed forceps, scalpel and pointed scissors. A fresh surgical blade was used for the perpendicular cut in each animal and tension of skin was kept constant during the procedure. Local infection with Staphylococcus aureus was introduced into wounds using 0.5 mL of 10^8 bacteria mL^−1 inoculums. The wounds were left undressed to the open environment and the animals were kept individually in separate cages. • Wounds treatment: Wounds were air exposed and treatment began 24 h after injury. Wounds of the control animals were treated with the vehicle (1% v/v Tween 80). Guinea pigs of the second and third group were treated with total alcohol extract of C. elegans and the isolated compound (adenosine) in a concentration of 5 mg mL^−1, while animals of the fourth group were medicated with latamoxef (Moxalactam)® in a concentration of 30 μg mL^−1 (Reference group). The vehicle, extract, and reference drug were applied topically on the wound surface once a day for 18 days. […] of each tested material was applied slowly, using an insulin syringe, from the central point extending outside the wound area to ensure inclusion of the edges. Swabs were taken on day 5 to confirm the presence of the expected organisms in the pus. • Assessment of wound healing: The wound areas were measured while the animals were under anaesthesia on days 0, 4, 7, 10, 14, and 18 post-wounding by tracing the wound areas onto a transparent tracing paper. […]

[5] = test system: Salmonella typhimuium (RCMB 0104); test: Antimicrobial screening, disc diffusion; type: cell-based; conditions: Salmonella typhimuim; Standard Antibiotics (1 mg/ml)
Procedure: as §1, §2, §3
as §4, with “millimeters.” for “millimeters. The obtained result was the mean of three experiments.”
Each fungal species was grown on malt extract media at 28±2° C. for 14 days. The metabolites of the fungal species were screened for antimicrobial activity.

[6] = test system: Staphylococcus aureus (RCMB 0106); test: Antimicrobial screening, disc diffusion; type: cell-based; conditions: Standard Antibiotics (1 mg/ml)
Procedure: as §1, §2, §3, §4, §5

[7] = test system: Streptococcus pyogenes (RCMB 0109); test: Antimicrobial screening, disc diffusion; type: cell-based; conditions: Standard Antibiotics (1 mg/ml)
Procedure: as §1, §2, §3, §4, §5

[8] = test system: Escherichia coli (RCMB 0103); test: Antimicrobial screening, disc diffusion; type: cell-based; conditions: Standard Antibiotics (1 mg/ml)
Procedure: as §1, §2, §3, §4, §5

[9] = test system: Pseudomonas aeruginosa (RCMB 0102); test: Antimicrobial screening, disc diffusion; type: cell-based; conditions: Pseudomonas aeurginosa; Standard Antibiotics (1 mg/ml)
Procedure: as §1, §2, §3, §4, §5

[10] = test system: Bacillus subtilis (RCMB 0107); test: Antimicrobial screening, disc diffusion; type: cell-based; conditions: Standard Antibiotics (1 mg/ml)
Procedure: as §1, §2, §3, §4, §5

Staphylococcus aureus = test: Minimum inhibitory concentration, agar well diffusion; type: cell-based
Source text: as §3
Agar well diffusion method: On the other hand, the agar well diffusion method was employed for determination of the minimum inhibitory concentration (MIC). The test organisms were separately seeded in the agar medium. The wells (10 mm in diameter) were cut from the agar and […] (different concentrations) was transferred into them. After incubation period, following suitable conditions for the test organism, the diameter of the inhibition zone around the discs was measured in millimeters. The obtained result was the mean of three experiments.
The minimum inhibitory concentration (MIC) of Cunninghamella blakesleeana, C. elegans, C. homothallica and successive extracts and isolated compounds of Cunninghamella elegans against Staphylococcus aureus was determined.
Minimum inhibitory concentration (MIC): The lowest concentration of an antimicrobial agent that will inhibit a visible growth of a microorganism after overnight incubation.

[11] = topical 30 μg mL^−1 once a day, n = 6
[12] = topical 30 μg mL^−1 once a day, n = 6, listed as latamoxef

CCC(C)n1ncn(-c2ccc(N3CCN(c4ccc(OCC5COC(Cn6cncn6)(c6ccc(Cl)cc6Cl)O5)cc4)CC3)cc2)c1=O (stereo not shown) [Itraconazole, reference compound]
zone of inhibition at 1000 µg/mL [1]: 27 ± 0.1 mm | zone of inhibition at 1000 µg/mL [2]: 28 ± 0.5 mm | zone of inhibition at 1000 µg/mL [3]: 26 ± 0.2 mm

CO[C@@]1(NC(=O)C(C(=O)O)c2ccc(O)cc2)C(=O)N2C(C(=O)O)=C(CSc3nnnn3C)CO[C@@H]21 (stereo partly shown) [Latamoxef, latamoxef, reference compound]
wound contraction ([4]; Day 14, topical 30 μg mL^−1): 100% | Wound area on day 0 ([4]; day 0, topical 30 μg mL^−1 once a day, n = 6): 300 ± 0.0 mm^2 | Wound area on day 4 ([4]; day 4, topical 30 μg mL^−1 once a day, n = 6): 219.4 ± 9.37** mm^2 | Wound area on day 7 ([4]; day 7, topical 30 μg mL^−1 once a day, n = 6): 146.4 ± 5.60*** mm^2 | Wound area on day 10 [4, 11]: 42.6 ± 1.85*** mm^2 | Wound area on day 10 [4, 12]: 42.6±1.85 mm^2 | Wound area on day 14 [4, 11]: 0.0 ± 0.0 mm^2 | Wound area on day 14 [4, 12]: 0.0 mm^2

CC1(C)S[C@@H]2[C@H](NC(=O)Cc3ccccc3)C(=O)N2[C@H]1C(=O)O [Penicillin G, reference compound]
Diameter of inhibition zone [5]: 34.3 ± 0.4 mm | Diameter of inhibition zone [6]: 29.5 ± 0.8 mm | Diameter of inhibition zone [7]: 31.4 ± 0.1 mm | Diameter of inhibition zone [8]: 33.5 ± 0.8 mm | Diameter of inhibition zone [9]: 28.3 ± 0.1 mm | Diameter of inhibition zone [10]: 32.5 ± 0.5 mm

[H]/N=C(/N)N[C@H]1[C@H](O)[C@@H](O)[C@H](O[C@@H]2O[C@@H](C)[C@](O)(C=O)[C@H]2O[C@@H]2O[C@@H](CO)[C@H](O)[C@@H](O)[C@@H]2NC)[C@@H](N/C(N)=N\[H])[C@@H]1O [Streptomycin, reference compound]
Diameter of inhibition zone [5]: 28.0 ± 0.3 mm | Diameter of inhibition zone [6]: 25.0 ± 0.2 mm | Diameter of inhibition zone [7]: 24.0 ± 0.4 mm | Diameter of inhibition zone [8]: 25.0 ± 0.3 mm | Diameter of inhibition zone [9]: 24.0 ± 0.1 mm | Diameter of inhibition zone [10]: 29.0 ± 0.4 mm

CN[C@H](CC(C)C)C(=O)N[C@H]1C(=O)N[C@@H](CC(N)=O)C(=O)N[C@H]2C(=O)N[C@H]3C(=O)N[C@H](C(=O)N[C@H](C(=O)O)c4cc(O)cc(O)c4-c4cc3ccc4O)[C@H](O)c3ccc(c(Cl)c3)Oc3cc2cc(c3O[C@@H]2O[C@H](CO)[C@@H](O)[C@H](O)[C@H]2O[C@H]2C[C@](C)(N)[C@H](O)[C@H](C)O2)Oc2ccc(cc2Cl)[C@H]1O [Vancomycin, reference compound]
MIC (Staphylococcus aureus; Staphylococcus aureus, read-out: Minimum inhibitory concentration): 0.75 mg/L (≈ 0.518 µM)

Gentamicin [reference compound]
Minimum inhibitory concentration (Staphylococcus aureus; against Staphylococcus aureus): 0.35 mg/L
